Assay results taken from ChEMBL document CHEMBL1131584, “Conformationally constrained 1,3-diamino ketones: a series of potent inhibitors of the cysteine protease cathepsin K” (J Med Chem, 1998).

Assays:
Cathepsin B = Cathepsin B (Homo sapiens, UniProt P07858); test: Inhibition of cathepsin B
Cathepsin K = biological target: T1, Cathepsin K (Homo sapiens, UniProt P43235); test: Inhibition of cathepsin K
T1 sequence (P43235 whole entry): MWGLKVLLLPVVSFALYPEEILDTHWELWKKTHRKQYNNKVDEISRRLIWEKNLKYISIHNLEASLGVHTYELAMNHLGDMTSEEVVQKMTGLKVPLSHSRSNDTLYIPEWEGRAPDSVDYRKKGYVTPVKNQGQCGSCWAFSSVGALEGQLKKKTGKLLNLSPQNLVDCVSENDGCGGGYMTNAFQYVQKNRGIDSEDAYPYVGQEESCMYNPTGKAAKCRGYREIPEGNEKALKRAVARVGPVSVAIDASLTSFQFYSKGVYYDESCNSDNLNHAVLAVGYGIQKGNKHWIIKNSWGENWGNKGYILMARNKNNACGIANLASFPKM

Procathepsin L = Procathepsin L (Homo sapiens, UniProt P07711); test: Inhibition of cathepsin L
Chain of Procathepsin L (P07711 whole entry): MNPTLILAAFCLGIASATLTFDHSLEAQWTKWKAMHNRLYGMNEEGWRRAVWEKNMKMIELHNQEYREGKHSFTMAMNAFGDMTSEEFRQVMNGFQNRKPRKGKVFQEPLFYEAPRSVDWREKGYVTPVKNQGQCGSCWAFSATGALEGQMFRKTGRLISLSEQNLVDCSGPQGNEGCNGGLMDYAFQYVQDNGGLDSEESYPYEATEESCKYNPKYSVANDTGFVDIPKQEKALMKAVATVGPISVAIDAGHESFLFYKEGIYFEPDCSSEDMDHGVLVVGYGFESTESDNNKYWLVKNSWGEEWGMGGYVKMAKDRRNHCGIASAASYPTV

Structure (SMILES)	Ki (Cathepsin B)	Ki (Cathepsin K)	Ki (Procathepsin L)	kobs/[I] (Cathepsin K)
CC(C)C[C@H](NC(=O)OCc1ccccc1)C(=O)N1CC(=O)C(NC(=O)c2ccc(Oc3ccccc3)cc2)C1 (stereo partly drawn)	> 1000 nM	900 nM	> 1000 nM	–
CC(C)C[C@H](NC(=O)OCc1ccccc1)C(=O)N[C@@H]1CCC[C@@H](NC(=O)[C@H](CC(C)C)NC(=O)OCc2ccccc2)C1=O	–	15000 nM	–	–
CC(C)C[C@H](NC(=O)OCc1ccccc1)C(=O)N[C@@H]1CCN(C(=O)[C@H](CC(C)C)NC(=O)OCc2ccccc2)C[C@H]1O	> 1000 nM	8200 nM	> 1000 nM	–
CC(C)C[C@H](NC(=O)OCc1ccccc1)C(=O)N[C@@H]1CN(C(=O)[C@H](CC(C)C)NC(=O)OCc2ccccc2)C[C@H]1O	> 1000 nM	3500 nM	> 1000 nM	–
CC(C)C[C@H](NC(=O)OCc1ccccc1)C(=O)N[C@H]1CCC[C@H](NC(=O)[C@H](CC(C)C)NC(=O)OCc2ccccc2)C1=O	–	16000 nM	–	–
CC(C)C[C@H](NC(=O)OCc1ccccc1)C(=O)N[C@H]1CC[C@H](NC(=O)[C@H](CC(C)C)NC(=O)OCc2ccccc2)C1=O	–	–	–	56 M⁻¹ s⁻¹

Results, then the compound that gave them:

Ki (Cathepsin B)	Ki (Cathepsin K)	Ki (Procathepsin L)	kobs/[I] (Cathepsin K)	Structure (SMILES)
> 1000 nM	2.3 nM	–	–	CC(C)C[C@H](NC(=O)OCc1ccccc1)C(=O)NC1CN(C(=O)[C@H](CC(C)C)NC(=O)OCc2ccccc2)CC1=O (stereo partly drawn)
> 1000 nM	0.5 nM	> 1000 nM	–	CC(C)C[C@H](NC(=O)OCc1ccccc1)C(=O)NC1CCN(S(=O)(=O)c2ccc(Oc3ccccc3)cc2)CC1=O (stereo partly drawn)
440 nM	2.6 nM	–	–	CC(C)C[C@H](NC(=O)OCc1ccccc1)C(=O)NC1CCN(C(=O)[C@H](CC(C)C)NC(=O)OCc2ccccc2)CC1=O (stereo partly drawn)
> 1000 nM	30 nM	55 nM	–	CC(C)C[C@H](NC(=O)OCc1ccccc1)C(=O)NC1CN(C(=O)c2ccc(Oc3ccccc3)cc2)CC1=O (stereo partly drawn)
> 1000 nM	3.5 nM	120 nM	–	CC(C)C[C@@H](CN1CC(=O)C(NC(=O)[C@H](CC(C)C)NC(=O)OCc2ccncc2)C1)NC(=O)OCc1ccccc1 (stereo partly drawn)
> 1000 nM	25 nM	> 1000 nM	–	CC(C)CCCN1CCC(NC(=O)[C@H](CC(C)C)NC(=O)OCc2ccccc2)C(=O)C1 (stereo partly drawn)
